Patent US20240262803A1, “COMPOUNDS, COMPOSITIONS AND METHODS OF TREATING DISORDERS” (Chungdu Anticancer Bioscience Ltd, priority 2021, published 2024)
Like-named read-outs stand apart in the source and are kept apart here.

Assays:
Assay type in all cases: cell-based
SW480 = experiment: Minimal effective concentration that elicits polyploidy, SW480; details: Homo sapiens, read-out: MECP: Minimal effective concentration that elicits polyploidy
[1] = tested on: cervical cancer cell line Hela; experiment: MTT assay of cellular proliferation, Hela; details: Homo sapiens, read-out: EC50: Concentration that inhibits 50% of proliferation
In short: (§1)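 First, mid-log cells are seeded in DMEM containing 5% FBS and grown 15˜24 h to 20˜30% confluence. Next, compounds are added across 1 nM to 10 μM. Finally, MTT is given for 3˜4 h, formazan is dissolved and read at A570 to derive EC50.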

[2] = tested on: lung cancer cell line A549; experiment: Minimal effective concentration that elicits polyploidy, A549; details: Homo sapiens, read-out: MECP: Minimal effective concentration that elicits polyploidy
[3] = tested on: lung cancer cell line NCI-H23; experiment: Minimal effective concentration that elicits polyploidy, NCI-H23; details: Homo sapiens, read-out: MECP: Minimal effective concentration that elicits polyploidy
[4] = tested on: colon cancer cell line HCT116; experiment: MTT assay of cellular proliferation, HCT116; details: Homo sapiens, HCT-116, read-out: EC50: Concentration that inhibits 50% of proliferation
In short: as §1

RPEMYC^H2B-GFP cells [5] = experiment: Mechanism-informed phenotypic screening assay (mitotic arrest, polyploidy; GE IN-Cell Analyzer 2000); details: 20 nM to 20 μM, 24, 48 or 72 hours, read-out: Mitotic Arrest (≥5%)
RPEMYC^H2B-GFP cells [6] = experiment: as above; details: 20 nM to 20 μM, 24, 48 or 72 hours, read-out: Min. Effective conc. for polyploidy (≥5%)
In short: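 Cells expressing Histone 2B-EGFP (RPEMYC^H2B-GFP) were plated 18-24 h before exposure to compounds at 20 nM to 20 μM. At 24, 48 or 72 h, imaging scored mitotic arrest or change in DNA content. Value is the lowest concentration giving polyploid accumulation at 48 h.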

[7] = tested on: colon cancer cell line HCT116; experiment: Minimal effective concentration that elicits polyploidy, HCT116; details: Homo sapiens, HCT-116, read-out: MECP: Minimal effective concentration that elicits polyploidy
[8] = tested on: colon cancer cell line SW460; experiment: MTT assay of cellular proliferation, SW460; details: Homo sapiens, SW480; read-out: EC50: Concentration that inhibits 50% of proliferation
In short: as §1

[9] = tested on: breast cancer cell line MDA-MB-231; experiment: MTT assay of cellular proliferation, MDA-MB-231; details: Homo sapiens, read-out: EC50: Concentration that inhibits 50% of proliferation
In short: as §1

[10] = tested on: lung cancer cell line NCI-H23; experiment: MTT assay of cellular proliferation, NCI-H23; details: Homo sapiens, read-out: EC50: Concentration that inhibits 50% of proliferation
In short: as §1

[11] = tested on: cervical cancer cell line Hela; experiment: Minimal effective concentration that elicits polyploidy, Hela; details: Homo sapiens, read-out: MECP: Minimal effective concentration that elicits polyploidy
[12] = tested on: liver cancer cell line T2 HCC; experiment: Minimal effective concentration that elicits polyploidy, T2 HCC; details: Mus musculus, read-out: MECP: Minimal effective concentration that elicits polyploidy
[13] = tested on: lung cancer cell line A549; experiment: MTT assay of cellular proliferation, A549; details: Homo sapiens, read-out: EC50: Concentration that inhibits 50% of proliferation
In short: as §1

[14] = tested on: gastric cancer cell line NCI-N87; experiment: Minimal effective concentration that elicits polyploidy, NCI-N87; details: Homo sapiens, read-out: MECP: Minimal effective concentration that elicits polyploidy
[15] = tested on: breast cancer cell line MDA-MB-231; experiment: Minimal effective concentration that elicits polyploidy, MDA-MB-231; details: Homo sapiens, read-out: MECP: Minimal effective concentration that elicits polyploidy
[16] = tested on: gastric cancer cell line NCI-N87; experiment: MTT assay of cellular proliferation, NCI-N87; details: Homo sapiens, read-out: EC50: Concentration that inhibits 50% of proliferation
In short: as §1

[17] = tested on: liver cancer cell line T2 HCC; experiment: MTT assay of cellular proliferation, T2 HCC; details: Mus musculus, read-out: EC50: Concentration that inhibits 50% of proliferation
In short: as §1

SMILES	minimal effective concentration (SW480) [µM]	EC50 [1] [nM]	minimal effective concentration [2] [µM]	minimal effective concentration [3] [µM]	EC50 [4] [nM]	minimal effective concentration (RPEMYC^H2B-GFP cells [5]) [µM]	minimal effective concentration (RPEMYC^H2B-GFP cells [6]) [µM]	minimal effective concentration [7] [µM]	EC50 [8] [nM]	EC50 [9] [nM]	EC50 [10] [nM]	minimal effective concentration [11] [µM]	minimal effective concentration [12] [µM]	EC50 [13] [nM]	minimal effective concentration [14] [µM]	minimal effective concentration [15] [µM]	EC50 [16] [nM]	EC50 [17] [nM]
COc1cc(OC)cc(Oc2ncccc2-c2ccnc(C)c2)c1 [Compound 42, 2-(3,5-dimethoxyphenoxy)-2′-methyl-3,4′-bipyridine]	0.001 to 1	1 to 1000	0.001 to 1	0.001 to 1	1 to 1000	1	1	0.001 to 1	1 to 1000	1 to 1000	1 to 1000	0.001 to 1	0.001 to 1	1 to 1000	0.001 to 1	0.001 to 1	1 to 1000	1 to 1000
COc1cc(NC(C)=O)cc(Oc2ncccc2-c2ccnc(C)c2)c1 [Compound 43, N-(3-methoxy-5-((2′-methyl-[3,4′-bipyridin]-2-yl)oxy)phenyl)acetamide]	0.001 to 1	1 to 1000	0.001 to 1	0.001 to 1	1 to 1000	1	1	0.001 to 1	1 to 1000	1 to 1000	1 to 1000	0.001 to 1	0.001 to 1	1 to 1000	0.001 to 1	0.001 to 1	1 to 1000	1 to 1000
CNC(=O)c1cc(OC)cc(Oc2ncccc2-c2ccnc(Cl)c2)c1 [Compound 45, 3-((2′-chloro-[3,4′-bipyridin]-2-yl)oxy)-5-methoxy-N-methylbenzamide]	0.001 to 1	1 to 1000	0.001 to 1	0.001 to 1	1 to 1000	1	1	0.001 to 1	1 to 1000	1 to 1000	1 to 1000	0.001 to 1	0.001 to 1	1 to 1000	0.001 to 1	0.001 to 1	1 to 1000	1 to 1000
